Reference: US20080090805A1, “CB-1 MODULATING COMPOUNDS AND THEIR USE” (ACADIA PHARMACEUTICALS INC., priority 2005, published 2008)
Where two headings read alike, the source gives them in different places.

Target: CB1 (mutant) (Homo sapiens, UniProt P21554)
Experiment: R-SAT functional receptor assay, CB1 (mutant, truncated after amino acid 417)
Type: cell-based
Conditions: R-SAT CB1; for IC50: receptor form (mutant or wild-type) not stated; for Emax / % Inhibition: receptor form not stated, relative to SR141716 (100%); for Emax: read-out: % Inhibition
[1] = Appendix A, read-out: pIC50 (converted)

Chain of CB1 (mutant) (P21554 1-417, change not shown): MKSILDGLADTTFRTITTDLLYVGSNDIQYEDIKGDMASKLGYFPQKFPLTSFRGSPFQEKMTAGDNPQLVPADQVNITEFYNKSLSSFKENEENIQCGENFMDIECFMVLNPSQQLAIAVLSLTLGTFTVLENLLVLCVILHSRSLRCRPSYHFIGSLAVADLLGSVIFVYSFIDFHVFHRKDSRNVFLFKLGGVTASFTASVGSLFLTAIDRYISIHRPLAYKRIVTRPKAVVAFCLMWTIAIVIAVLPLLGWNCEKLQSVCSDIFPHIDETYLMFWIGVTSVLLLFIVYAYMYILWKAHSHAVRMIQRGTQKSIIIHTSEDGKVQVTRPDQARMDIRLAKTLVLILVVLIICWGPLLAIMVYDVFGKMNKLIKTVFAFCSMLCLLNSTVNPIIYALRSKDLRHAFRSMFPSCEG

SMILES	IC50 [1]	Emax (Appendix A)	% Inhibition (Appendix A)	IC50 (pIC50, Appendix A)
O=C(NCc1cccc(Cl)c1)c1ccc2c(c1)N=C(c1ccc(F)cc1)c1ccccc1S2(=O)=O [drawing 833]	12.6 nM	108%	–	–
O=C(Cc1ccccc1)NNC(=O)c1ccc2c(c1)N=C(c1ccc(F)cc1)c1ccccc1S2 [drawing 840]	158 nM	98%	–	–
O=C(NN1CCCCC1)c1ccc2c(c1)N=C(c1ccc(F)cc1)c1ccccc1S2 [drawing 845]	–	–	97%	–
Clc1ccc(C2=Nc3cc(-c4ncc[nH]4)ccc3Sc3ccccc32)cc1 [drawing 846]	158 nM	109%	–	–
C[C@@H]1CCC[C@H](C)N1NC(=O)c1ccc2c(c1)N=C(c1cccc(Cl)c1)c1ccccc1S2 [drawing 847]	–	100%	–	12.6 nM
CCOC(=O)c1ccc(C2=Nc3cc(C(=O)NCc4cccnc4)ccc3Sc3ccccc32)cc1 [drawing 850]	158 nM	73%	–	–
COc1ccc(C2=Nc3cc(C(=O)NC4CCCC4)ccc3Sc3ccccc32)cc1 [drawing 852]	158 nM	103%	–	–
O=C(NCc1ccco1)c1ccc2c(c1)N=C(c1ccccc1F)c1ccccc1S2 [drawing 859]	–	100%	–	12.6 nM
O=C(NN1CCCCC1)c1ccc2c(c1)N=C(C1CCCCC1)c1ccccc1S2 [drawing 861]	–	–	100%	–
O=C(NN1CCCCC1)c1ccc2c(c1)N=C(c1ccc(Cl)cc1)c1ccccc1S2 [drawing 863]	–	–	103%	–
CCN(CCNC(=O)c1ccc2c(c1)N=C(C1CCCCC1)c1ccccc1S2)c1ccccc1 [drawing 865]	15.8 nM	105%	–	–
Cc1cccc(C2=Nc3cc(C(=O)NC4CCC(F)(F)CC4)ccc3Sc3ccccc32)n1 [drawing 869]	15.8 nM	74%	–	–
Cc1cnc(-c2ccc3c(c2)N=C(c2ccc(Cl)cc2)c2ccccc2S3)[nH]1 [drawing 872]	200 nM	88%	–	–
CCOC(=O)c1ccc(C2=Nc3cc(C(=O)NCc4ccccn4)ccc3Sc3ccccc32)cc1 [drawing 874]	200 nM	100%	–	–
O=C(NCc1ccccc1)c1ccc2c(c1)N=C(C1CCCCC1)c1ccccc1S2 [drawing 877]	15.8 nM	97%	–	–
CCCCNC(=O)c1ccc2c(c1)N=C(c1sccc1C)c1ccccc1S2 [drawing 881]	–	91%	–	15.8 nM

SMILES	IC50 [1]	Emax (Appendix A)	% Inhibition (Appendix A)	IC50 (pIC50, Appendix A)
O=C(NN1CCCCCC1)c1ccc2c(c1)N=C(c1cccc(F)c1)c1ccccc1S2 [drawing 883]	–	–	96%	15.8 nM
O=C(NCc1ccccc1Br)c1ccc2c(c1)N=C(N1CCCCC1)c1ccccc1S2 [drawing 890]	200 nM	62%	–	–
O=C(NCc1ccccn1)c1ccc2c(c1)N=C(c1cccc(Br)c1)c1ccccc1S2 [drawing 891]	15.8 nM	85%	–	–
O=C(NCc1cccnc1)c1ccc2c(c1)N=C(c1cccc(Br)c1)c1ccccc1S2 [drawing 895]	15.8 nM	105%	–	–
Cc1ccc(N2CCN(C(=O)c3ccc4c(c3)N=C(C3CCCCC3)c3ccccc3S4)CC2)c(C)c1 [drawing 896]	200 nM	103%	–	–
O=C(NN1CCCCC1)c1ccc2c(c1)N=C(c1ccccc1)c1ccccc1S2 [drawing 897]	15.8 nM	115%	–	–
O=C(NCCCc1ccccc1)c1ccc2c(c1)N=C(N1CCCCC1)c1ccccc1S2 [drawing 903]	15.8 nM	104%	–	–
CCN(CCNC(=O)c1ccc2c(c1)N=C(N1CCCCC1)c1ccccc1S2)c1ccccc1 [drawing 913]	15.8 nM	105%	–	–
O=C(NN1CCCCC1)c1ccc2c(c1)N=C(c1ccc(Cl)cc1)c1ccccc1S2 [drawing 914]	–	–	51%	–
O=C(NCc1ccc(F)cc1)c1ccc2c(c1)N=C(C1CCCCC1)c1ccccc1S2(=O)=O [drawing 917]	15.8 nM	120%	–	–
O=C(NNCc1ccccc1)c1ccc2c(c1)N=C(c1cccc(Br)c1)c1ccccc1S2 [drawing 928]	251 nM	86%	–	–
O=C(NN1CCCCC1)c1ccc2c(c1)N=C(c1cccc(F)c1)c1ccccc1S2 [drawing 929]	–	111%	–	15.8 nM
CCCCNC(=O)c1ccc2c(c1)N=C(C1CCCCC1)c1ccccc1S2 [drawing 937]	20 nM	106%	–	–
O=C(NCc1cccc(Cl)c1)c1ccc2c(c1)N=C(N1CCCCC1)c1ccccc1S2(=O)=O [drawing 939]	–	91%	–	20 nM
C[C@@H]1CCC[C@H](C)N1NC(=O)c1ccc2c(c1)N=C(c1ccc(F)cc1)c1ccccc1S2 [drawing 943]	20 nM	115%	–	–

Continued, in another order:

IC50 [1]	Emax (Appendix A)	SMILES	% Inhibition (Appendix A)	IC50 (pIC50, Appendix A)
12.6 nM	118%	COc1ccc(C2=Nc3cc(C(=O)NCC(C)C)ccc3Sc3ccccc32)cc1 [drawing 835]	–	–
12.6 nM	110%	O=C(NCc1cccc(Cl)c1)c1ccc2c(c1)N=C(c1ccc(Cl)cc1)c1cc(F)ccc1S2 [drawing 837]	–	–
12.6 nM	103%	O=C(NCCc1ccccc1)c1ccc2c(c1)N=C(c1ccc(F)cc1)c1ccccc1S2 [drawing 839]	–	–
12.6 nM	95%	CCCNC(=O)c1ccc2c(c1)N=C(c1ccc(F)cc1)c1ccccc1S2 [drawing 841]	–	–
12.6 nM	99%	O=C(NC1CCCCC1)c1ccc2c(c1)N=C(c1cccc(Cl)c1)c1ccccc1S2 [drawing 843]	–	–
158 nM	–	O=C(NC1CCCCC1)c1ccc2c(c1)N=C(c1ccc(Cl)cc1)c1ccccc1S2 [drawing 844]	97%	–
12.6 nM	110%	COCCNC(=O)c1ccc2c(c1)N=C(c1cccc(Cl)c1)c1ccccc1S2 [drawing 849]	–	–
12.6 nM	101%	CCCNC(=O)c1ccc2c(c1)N=C(c1ccc(Cl)cc1F)c1ccccc1S2 [drawing 851]	–	–
12.6 nM	100%	Cc1ccsc1C1=Nc2cc(C(=O)NCc3ccco3)ccc2Sc2ccccc21 [drawing 855]	–	–
12.6 nM	100%	O=C(NCCc1cccnc1)c1ccc2c(c1)N=C(c1cccc(Cl)c1)c1ccccc1S2 [drawing 857]	–	–
15.8 nM	102%	O=C(NN1CCCCCC1)c1ccc2c(c1)N=C(c1ccc(Cl)cc1F)c1ccccc1S2 [drawing 867]	–	–
15.8 nM	117%	O=C(NCCCC(F)(F)F)c1ccc2c(c1)N=C(c1ccccn1)c1ccccc1S2 [drawing 871]	–	–
15.8 nM	99%	CCCCNC(=O)c1ccc2c(c1)N=C(c1ccc(Cl)s1)c1cc(F)ccc1S2 [drawing 873]	–	–
15.8 nM	106%	CCCCNS(=O)(=O)c1ccc2c(c1)N=C(c1ccc(Cl)cc1)c1ccccc1S2 [drawing 875]	–	–
200 nM	82%	O=C(NN1CCCCCC1)c1ccc2c(c1)N=C(c1ccc(Cl)cc1Cl)c1ccccc1S2 [drawing 876]	–	–
15.8 nM	113%	CC(CNC(=O)c1ccc2c(c1)N=C(c1cccc(Cl)c1)c1cc(F)ccc1S2)c1ccccc1 (stereo not shown) [drawing 879]	–	–
15.8 nM	106%	CCCC1=Nc2cc(C(=O)NCCN(CC)c3ccccc3)ccc2Sc2ccccc21 [drawing 885]	–	–
15.8 nM	112%	CCCCNC(=O)c1ccc2c(c1)N=C(c1ccc(OC)cc1)c1ccccc1S2 [drawing 887]	–	–

IC50 [1]	Emax (Appendix A)	SMILES	% Inhibition (Appendix A)	IC50 (pIC50, Appendix A)
15.8 nM	104%	O=C(NCCc1ccc(Cl)cc1)c1ccc2c(c1)N=C(C1CCCCC1)c1ccccc1S2 [drawing 889]	–	–
15.8 nM	109%	CCCNC(=O)c1ccc2c(c1)N=C(c1cccc(F)c1)c1ccccc1S2 [drawing 893]	–	–
15.8 nM	107%	O=C(NCc1cccc(Cl)c1)c1ccc2c(c1)N=C(c1ccccc1)c1ccccc1S2 [drawing 899]	–	–
15.8 nM	101%	O=C(NCc1ccc(Cl)cc1Cl)c1ccc2c(c1)N=C(c1ccc(Cl)cc1)c1ccccc1S2 [drawing 901]	–	–
15.8 nM	103%	O=C(NCCc1ccccn1)c1ccc2c(c1)N=C(c1cccc(Cl)c1)c1ccccc1S2 [drawing 905]	–	–
15.8 nM	100%	CCCCNC(=O)c1ccc2c(c1)N=C(c1ccccn1)c1ccccc1S2 [drawing 907]	–	–
15.8 nM	110%	CC(CNC(=O)c1ccc2c(c1)N=C(c1ccccc1F)c1ccccc1S2)c1ccccc1 (stereo not shown) [drawing 909]	–	–
15.8 nM	99%	O=C(NCCc1cccc(Cl)c1)c1ccc2c(c1)N=C(c1ccc(Cl)cc1)c1ccccc1S2 [drawing 911]	–	–
15.8 nM	112%	CCCNC(=O)c1ccc2c(c1)N=C(c1ccc(OC)cc1)c1ccccc1S2 [drawing 915]	–	–
15.8 nM	98%	O=C(NCCc1cccc(Cl)c1)c1ccc2c(c1)N=C(c1ccc(F)cc1)c1ccccc1S2 [drawing 919]	–	–
15.8 nM	118%	CC(C)NC(=O)c1ccc2c(c1)N=C(c1cccc(Cl)c1)c1ccccc1S2 [drawing 921]	–	–
15.8 nM	102%	O=C(NCc1ccc(F)cc1)c1ccc2c(c1)N=C(c1ccccc1F)c1ccccc1S2 [drawing 925]	–	–
15.8 nM	99%	CCCNC(=O)c1ccc2c(c1)N=C(c1sccc1C)c1ccccc1S2 [drawing 927]	–	–
15.8 nM	123%	O=C(NCc1cccnc1)c1ccc2c(c1)N=C(c1ccc(F)cc1)c1ccccc1S2 [drawing 931]	–	–
20 nM	106%	CC(CNC(=O)c1ccc2c(c1)N=C(c1ccc(Cl)cc1)c1ccccc1S2)c1ccccc1 (stereo not shown) [drawing 933]	–	–
20 nM	106%	O=C(NCCCc1ccccc1)c1ccc2c(c1)N=C(c1ccccc1F)c1ccccc1S2 [drawing 935]	–	–
20 nM	127%	O=C(NC1CCCCC1)c1ccc2c(c1)N=C(c1cccc(F)c1)c1ccccc1S2 [drawing 941]	–	–
20 nM	106%	Cc1ccsc1C1=Nc2cc(C(=O)NCCC(C)C)ccc2Sc2ccccc21 [drawing 945]	–	–
